Read-outs that look alike come from different tables or passages of the source.
Columns and labels:
off-target kinases [1] = molecular target: T1, off-target kinases (Homo sapiens, UniProt O00141); assay: SelectScreen Kinase Profiling, single point inhibition and IC50 for off-target kinases; assay type: biochemical; settings: SGK (SGK1), ZLYTE, ATP Km app
T1 sequence (O00141 1-431): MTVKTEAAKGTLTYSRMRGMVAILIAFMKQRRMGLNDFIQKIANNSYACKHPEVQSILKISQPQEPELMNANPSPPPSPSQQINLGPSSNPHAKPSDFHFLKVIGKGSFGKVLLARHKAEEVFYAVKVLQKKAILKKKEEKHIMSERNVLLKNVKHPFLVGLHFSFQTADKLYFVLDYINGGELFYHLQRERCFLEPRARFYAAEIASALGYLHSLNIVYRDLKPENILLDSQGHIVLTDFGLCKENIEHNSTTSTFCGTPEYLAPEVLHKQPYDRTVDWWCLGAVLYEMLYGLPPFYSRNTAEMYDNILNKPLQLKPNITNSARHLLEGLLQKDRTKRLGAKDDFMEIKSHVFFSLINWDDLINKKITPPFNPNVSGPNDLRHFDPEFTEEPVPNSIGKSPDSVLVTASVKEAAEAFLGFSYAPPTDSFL

off-target kinases [2] = molecular target: T2, off-target kinases (Homo sapiens, UniProt P29320); assay: as above; assay type: biochemical; settings: EPHA3, LanthaScreen Binding
T2 sequence (P29320 21-983): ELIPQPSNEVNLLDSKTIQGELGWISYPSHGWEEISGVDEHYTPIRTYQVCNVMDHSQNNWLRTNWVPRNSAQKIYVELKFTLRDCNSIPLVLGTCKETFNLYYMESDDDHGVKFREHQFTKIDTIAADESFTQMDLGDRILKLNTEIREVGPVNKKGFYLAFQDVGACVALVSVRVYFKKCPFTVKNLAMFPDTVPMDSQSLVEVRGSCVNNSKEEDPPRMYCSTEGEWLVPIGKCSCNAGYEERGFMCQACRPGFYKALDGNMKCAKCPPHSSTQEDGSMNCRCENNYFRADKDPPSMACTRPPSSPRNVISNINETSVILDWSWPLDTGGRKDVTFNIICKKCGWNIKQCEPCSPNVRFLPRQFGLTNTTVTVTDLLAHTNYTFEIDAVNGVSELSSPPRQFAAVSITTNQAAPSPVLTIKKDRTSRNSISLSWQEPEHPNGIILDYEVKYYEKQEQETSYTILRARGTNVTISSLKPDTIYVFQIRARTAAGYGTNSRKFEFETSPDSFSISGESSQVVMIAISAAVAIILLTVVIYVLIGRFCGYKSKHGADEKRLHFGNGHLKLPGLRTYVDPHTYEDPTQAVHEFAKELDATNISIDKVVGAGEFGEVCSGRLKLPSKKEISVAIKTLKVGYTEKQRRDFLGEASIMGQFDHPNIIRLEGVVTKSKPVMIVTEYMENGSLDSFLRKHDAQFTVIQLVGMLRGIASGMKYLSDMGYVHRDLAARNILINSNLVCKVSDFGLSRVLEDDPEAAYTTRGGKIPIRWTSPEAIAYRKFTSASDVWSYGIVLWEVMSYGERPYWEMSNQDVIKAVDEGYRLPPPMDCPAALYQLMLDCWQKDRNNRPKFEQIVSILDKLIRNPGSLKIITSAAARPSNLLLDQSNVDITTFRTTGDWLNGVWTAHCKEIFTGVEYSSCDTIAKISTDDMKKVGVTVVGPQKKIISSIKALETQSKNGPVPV

## N#Cc1cc(-c2ncnc(Nc3ccc(N4CCN(C5COC5)CC4)cc3)n2)ccc1OC1CCOCC1 [Compound 1, 5-(4-((4-(4-(oxetan-3-yl)piperazin-1-yl)phenyl)amino)-1,3,5-triazin-2-yl)-2-((tetrahydro-2H-pyran-4-yl)oxy)benzonitrile]
off-target kinases [1]; read-out: % Inhibition 1
  inhibition: 28%
off-target kinases [1]; read-out: % Inhibition 2
  inhibition: 26%
off-target kinases [1]; read-out: % Inhibition Avg
  inhibition: 27%
off-target kinases [2]; read-out: % Inhibition 1
  inhibition: 6%
off-target kinases [2]; read-out: % Inhibition 2
  inhibition: 3%
off-target kinases [2]; read-out: % Inhibition Avg
  inhibition: 4%

Reference: patent US11572590B2, “Methods for evaluating tumor cell spheroids using 3D microfluidic cell culture device” (Dana-Farber Cancer Institute, Inc., priority 2017, dated 2023)
